From ChEMBL document CHEMBL2346627, “Synthesis and cytotoxicity evaluation of oleanolic acid derivatives” (Bioorg Med Chem Lett, 2013)
Active and inactive are the calls of the source. The calls are words filed in the database; no cut-off is given here.

Assays:
HepG2 = assay: Cytotoxicity against human HepG2 cells; format: functional, cell-based
MCF7 [1] = assay: Cytotoxicity against human MCF7 cells by MTT assay; format: functional, cell-based
BGC-823 = assay: Cytotoxicity against human BGC823 cells by MTT assay; format: functional, cell-based
PC-3 [2] = assay: Cytotoxicity against human PC3 cells by MTT assay; format: functional, cell-based
A549 = assay: Cytotoxicity against human A549 cells by MTT assay; format: functional, cell-based
PC-3 [3] = assay: Ratio of oleanolic acid IC50 to compound IC50 for human PC3 cells; format: functional
MCF7 [4] = assay: Ratio of oleanolic acid IC50 to compound IC50 for human MCF7 cells; format: functional
PC-3 [5] = assay: Ratio of adriamycin IC50 to compound IC50 for human PC3 cells; format: functional

Row | Structure (SMILES) | IC50 (HepG2) [µM] | IC50 (MCF7 [1]) [µM] | IC50 (BGC-823) [µM] | IC50 (PC-3 [2]) [µM] | IC50 (A549) [µM] | Ratio IC50 (PC-3 [3]) | Ratio IC50 (MCF7 [4]) | Ratio IC50 (PC-3 [5]) | inhibition (MCF7 [1])
1 | COC(=O)[C@]12CCC(C)(C)C[C@@H]1C1=CC[C@@H]3[C@@]4(C)CC[C@H](N)C(C)(C)[C@@H]4CC[C@@]3(C)[C@]1(C)CC2 | 4 | – | – | – | – | – | – | – | –
2 | COc1cccc2c1C(=O)c1c(O)c3c(c(O)c1C2=O)C[C@@](O)(C(=O)CO)C[C@@H]3O[C@H]1C[C@H](N)[C@H](O)[C@H](C)O1 [DOXORUBICIN] | – | 1.65 | – | – | – | – | – | – | –
3 | CC1(C)CC[C@]2(C(=O)OCC(=O)O)CC[C@]3(C)C(=CC[C@@H]4[C@@]5(C)CC[C@H](OC(=O)CCC(=O)O)C(C)(C)[C@@H]5CC[C@]43C)[C@@H]2C1 | – | 805 | 13.4 | 7.72 | 11.9 | – | – | – | –
4 | CC1(C)CC[C@]2(C(=O)O)CC[C@]3(C)C(=CC[C@@H]4[C@@]5(C)CC[C@H](OC(=O)Cn6ccnc6)C(C)(C)[C@@H]5CC[C@]43C)[C@@H]2C1 | – | 894 | 16.3 | 57.5 | 16.9 | – | – | – | –
5 | CC1(C)CC[C@]2(C(=O)OCC(=O)O)CC[C@]3(C)C(=CC[C@@H]4[C@@]5(C)CC[C@H](OC(=O)CCC(=O)NCCS(=O)(=O)O)C(C)(C)[C@@H]5CC[C@]43C)[C@@H]2C1 | – | 51.7 | 84.5 | 10.4 | 268 | – | – | – | –
6 | CC1(C)CC[C@]2(C(=O)O)CC[C@]3(C)C(=CC[C@@H]4[C@@]5(C)CC[C@H](OC(=O)CN6CCCC6)C(C)(C)[C@@H]5CC[C@]43C)[C@@H]2C1 | – | 12.9 | 87.2 | 28.3 | 8.53 | – | – | – | –
7 | CC1(C)CC[C@]2(C(=O)O)CC[C@]3(C)C(=CC[C@@H]4[C@@]5(C)CC[C@H](O)C(C)(C)[C@@H]5CC[C@]43C)[C@@H]2C1 [OLEANOLIC_ACID] | – | 35.4 | 2.59 | 6.51 | 0.39 | – | – | – | –
8 | CC1(C)CC[C@]2(C(=O)O)CC[C@]3(C)C(=CC[C@@H]4[C@@]5(C)CC[C@H](OC(=O)CCC(=O)NCCS(=O)(=O)O)C(C)(C)[C@@H]5CC[C@]43C)[C@@H]2C1 | – | 5.19 | 7.32 | 0.83 | 1.31 | 17 | – | – | –
9 | CC1(C)CC[C@]2(C(=O)O)CC[C@]3(C)C(=CC[C@@H]4[C@@]5(C)CC[C@H](OC(=O)CCN6CCCC6)C(C)(C)[C@@H]5CC[C@]43C)[C@@H]2C1 | – | 1.98 | 27.2 | 5.45 | 6.12 | – | 17 | – | –
10 | CC1(C)CC[C@]2(C(=O)O)CC[C@]3(C)C(=CC[C@@H]4[C@@]5(C)CC[C@H](OC(=O)C[C@H](O)C(=O)O)C(C)(C)[C@@H]5CC[C@]43C)[C@@H]2C1 | – | 16.2 | 4.18 | 0.39 | 0.71 | 17 | – | 1.7 | –
11 | CC1(C)CC[C@]2(C(=O)O)CC[C@]3(C)C(=CC[C@@H]4[C@@]5(C)CC[C@H](OC(=O)CCC(=O)O)C(C)(C)[C@@H]5CC[C@]43C)[C@@H]2C1 [OLEANOLIC ACID 3-O-SUCCINATE] | – | 60.7 | 5.59 | 7.11 | 6.57 | – | – | – | –
12 | CC1(C)CC[C@]2(C(=O)OCC(=O)O)CC[C@]3(C)C(=CC[C@@H]4[C@@]5(C)CC[C@H](OC(=O)C[C@H](O)C(=O)O)C(C)(C)[C@@H]5CC[C@]43C)[C@@H]2C1 | – | 35.1 | 9.36 | 8.07 | 19.3 | – | – | – | –
13 | CC1(C)CC[C@]2(C(=O)O)CC[C@]3(C)C(=CC[C@@H]4[C@@]5(C)CC[C@H](OC(=O)CCN6CCOCC6)C(C)(C)[C@@H]5CC[C@]43C)[C@@H]2C1 | – | 718 | 81.9 | 6.38 | 728 | – | – | – | –
14 | CC1(C)CC[C@]2(C(=O)O)CC[C@]3(C)C(=CC[C@@H]4[C@@]5(C)CC[C@H](OC(=O)CN6CCOCC6)C(C)(C)[C@@H]5CC[C@]43C)[C@@H]2C1 | – | 14.9 | 24.5 | 6.29 | 8.27 | – | – | – | –
15 | CC1(C)CC[C@]2(C(=O)O)CC[C@]3(C)C(=CC[C@@H]4[C@@]5(C)CC[C@H](OC(=O)CCn6ccnc6)C(C)(C)[C@@H]5CC[C@]43C)[C@@H]2C1 | – | – | 76.3 | 50.5 | 0.22 | – | – | – | inactive
